For series [1], the system named is STIL CCD peptide. The experiment in a line: AUC sedimentation velocity (SV), oligomeric state. It counts as physicochemical. As to conditions: for oligomeric state (average number of monomers in the oligomer): continuous c(s), 25 mM sodium phosphate pH 6.8, NaCl. On the procedure: Previously, we and others have shown by size-exclusion chromatography and multi-angle light scattering that the oligomerization of a STIL CCD peptide is concentration dependent. However, these studies were qualitative and the interaction was not quantified. To quantify the oligomerisation of the STIL CCD peptide, analytical ultracentrifugation (AUC) sedimentation velocity (SV) and sedimentation equilibrium (SE) experiments were performed (Figure 2A, Table 1 and Figures S4–S9, S18 and S19). AUC-SV experiments were conducted at several concentrations to explore how the oligomeric state changed with concentration in the low-to-high µM concentration range, and also to estimate the dissociation constants of the oligomerization of the STIL CCD peptide.
(§1) Analytical ultracentrifugation (AUC) experiments were carried out using a Beckman Optima XL-A or XL-I analytical ultracentrifuge. Measurements were performed at 20 °C unless otherwise stated, using an An-50 or An-60 rotor, in Sodium Phosphate Buffer pH 6.8 (25 mM Na2PO4 with addition of 137 mM NaCl, pH measured using Jenway (TM) 3510 benchtop and adjusted using 1M HCl and 1M NaOH solutions). The partial specific volume ( υ¯ ) for each peptide were calculated in Sedfit using values from Cohn and Edsall. The buffer densities and viscosities were calculated using UltraScan III [54].
Sedimentation velocity (SV) experiments were performed in EPON 2-channel centerpieces with quartz windows or aluminium centrepieces with sapphire windows. The samples were centrifuged at 50 or 60 krpm where stated, with absorbance measurements taken from a radial range of 5.7–7.3 cm. 120 scans were taken at 5 min intervals, the data were fit in Sedfit to a continuous c(s) distribution model at a 95% confidence level. The frictional ration and baseline were floated, and Time-invariant and Radial-invariant noise were fit. Initially data were fit between a range of Svedberg ratio of 0–15, but this was reduced to 0–3 for all data as there were no larger species. The residuals for each individual fit are shown in Figures S14–S17 as a bitmap in which the color indicates the difference between the model fit and the raw data over the radial range to which the data were fitted. The scans are in vertical chronological order.

Series [2] deals with STIL CCD peptide. The series can be described thus: AUC sedimentation equilibrium (SE), oligomeric state. Type of series: physicochemical. As to conditions: absorbance 225 nm, 95% confidence limits; for AUC oligomeric state, SE: starting concentrations 5, 10, 20 µM, single ideal species fit, 20 °C, 25 mM phosphate pH 6.8; for mass, single species model, SE: starting concentrations 20, 10 and 5 µM. The method, then: (§2) To quantify the dissociation constants of the possible monomer-dimer and dimer-tetramer transitions, we used fluorescence-based binding measurements. Using micro-scale thermophoresis, fluorescence measurements were taken at increasing concentrations of WT CCD peptide in a fixed background of 5 µM fluorophore-labelled peptide. […] Fitting the fluorescence data to the Hill equation provided a dissociation constant of 8 ± 2 µM and a cooperativity of 1.2 ± 0.3 (Figure 2B, Table S4). We interpret this as being for the monomer-dimer transition, and that the fluorescence measurements are insensitive to the higher-order oligomerization. […] To probe the possible dimer-tetramer transition, we turned to AUC-SE measurements with starting concentrations of 5, 10, and 20 µM of STIL WT CCD peptide (Figures S18 and S19). The equilibrated data were fitted first to a model for a single ideal species, which provided a species 2.9 × monomer mass (Table 1). […] It should be noted that the dimerization constant of the WT peptide was measured in the presence of 5% DMSO and using a fluorophore-labeled peptide, while the tetramerization constant was measured without DMSO and unlabeled peptides. The addition of the label and the presence of the DMSO, which was unavoidable for making the labeled peptide soluble, may have affected the measured dimerization constant. Thus, we avoid directly comparing the values obtained by the two methods.
as §1
AUC sedimentation equilibrium (SE) experiments were run at multiple concentrations in a 6-Channel Epon charcoal-filled centerpiece. The samples were centrifuged at a range of speeds between 22–48 krpm. Absorbance scans across the radial range were recorded twice at each speed to ensure equilibration. Data were fitted to single, ideal species models or monomer-dimer equilibrium using Sedphat. In total, 95% confidence limits were obtained via Monte-Carlo analysis of the obtained fits. The quality of the fit was evaluated using the χ^2 parameter to observe which model best fit the data. Both fits of the data, where performed in Figures S18–S23 with their corresponding fit information.

In series [3] the test system is STIL CCD peptide. The experiment in a line: AUC-SE dimer-tetramer model, tetramerization KD. As to conditions: any experimental conditions; KDs could not be measured. Type of series: binding. The method, then: as §2
Analytical ultracentrifugation (AUC) experiments were carried out using a Beckman Optima XL-A or XL-I analytical ultracentrifuge. Measurements were performed at 20 °C unless otherwise stated, using an An-50 or An-60 rotor, in Sodium Phosphate Buffer pH 6.8 (25 mM Na2PO4 with addition of 137 mM NaCl, pH measured using Jenway (TM) 3510 benchtop and adjusted using 1M HCl and 1M NaOH solutions). The partial specific volume ( υ¯ ) for each peptide were calculated in Sedfit using values from Cohn and Edsall. The buffer densities and viscosities were calculated using UltraScan III [54]. […]

A short description of series [4]: CD spectroscopy, helicity. It counts as physicochemical. As to conditions: CD at 50 µM, 5 °C, 25 mM sodium phosphate pH 6.8, 154 mM NaCl; for % Helicity: from MRE222 (100% = −38). From the text:
(§3) Next, we used circular dichroism (CD) spectroscopy to probe the secondary structures of these WT CCD peptide assemblies. […] The spectra all had minima at 208 and 222 nm indicative of largely α-helical structures. From the high-concentration spectra we estimated ≈47% helix. To compare how the stabilities of these helical assemblies changed with concentration, we followed the changes in MRE222 with temperature over the same concentration range (Figure 2D, Table S1). Sigmoidal curves indicative of cooperative unfolding were apparent at all concentrations, indicating a cooperatively folded, oligomeric species. […] The temperature-dependent CD measurements were performed to determine the oligomerization-dependent thermal stability of the CCD. […] CD spectra of the peptides were recorded using a J-810 spectropolarimeter (Jasco) in a 0.1 cm and 1 cm quartz cuvette for far-UV CD spectroscopy, in a spectral range of 190 nm to 260 nm. The buffer used in the CD measurements was 25 mM sodium phosphate buffer pH = 6.8 with ionic strength of 154 mM (adjected by NaCl). The thermal melting of all STIL CCD peptides were measured as described. The graphs were fitted to Boltzmann equation in order to generate the Tm. Normalization to mean residue ellipticity was performed. The 100% helicity was calculated (with normalization to the length of the peptide and the condition of the measurement) as MRE × 10^−3 of −38 (Deg × cm^2 × dmol^−1 × res^−1).

The format of series [5] is physicochemical. As to conditions: 50 µM; CD 222 nm, Boltzmann fit, 25 mM sodium phosphate pH 6.8, 154 mM NaCl.
Source text: as §3

Series [6] deals with the molecule itself. The experiment in a line: AUC; sedimentation velocity, 100 µM peptide, c(s) distribution; 20 °C, sodium phosphate pH 6.8 with NaCl.
Series [7] deals with the molecule itself. The series can be described thus: AUC; sedimentation velocity, 10 µM peptide, c(s) distribution; 20 °C, 25 mM sodium phosphate pH 6.8, ionic strength 154 mM (NaCl).
Series [8] concerns the molecule itself. The experiment in a line: AUC; sedimentation equilibrium, starting concentrations 5, 10 and 20 µM, unlabelled peptide, no DMSO; 20 °C, sodium phosphate pH 6.8 with NaCl; fitted to a single ideal species (N) and, for the WT, to a dimer-tetramer model (apparent KD: tetramer to dimers).
Where [9] appears, read: 10 µM, AUC-SV, 60 krpm, 20 °C, pH 6.8.
Setting [10] is: 10 µM, AUC-SV, 60 krpm, 20 °C, pH 6.8, 95% confidence level.
The mark [11] stands for this setting: 10 µM, AUC-SV, 60 krpm, 20 °C, absorbance, 95% confidence level.
Setting [12] is: 100 µM, AUC-SV, 60 krpm, pH 6.8.
[13] abbreviates: 10 µM in legend of Figure S17 (second fit), 60 krpm.

No end group written: not given here.

In the case of “L SPDAYRF LTELDRQ LRLLQAQ IQRLLEA QSL-NH2 [STIL CCD718–749 Q729L, STIL CCD peptide with stabilising Q729L mutation; PDB 8oyl]”, the “Oligomeric State (at 10 µM)” value in the series with STIL CCD peptide [1] (10 µM) was “Tetramer”. Moreover, the sw was 1.484 S with STIL CCD peptide [1] (setting [9]) and 1.573 S in the series with STIL CCD peptide [1] (100 µM, AUC-SV, 60 krpm, 20 °C, pH 6.8). The “mw (solution mass from c(s) fit)” value in the series on STIL CCD peptide [1] (setting [10]) is reported as 13538 Da; with STIL CCD peptide [1] (100 µM, AUC-SV, 60 krpm, 20 °C, pH 6.8, 95% confidence level), 15867 Da. Moreover, the f/f0 in the series with STIL CCD peptide [1] (10 µM, AUC-SV, 60 krpm, pH 6.8) is on record as 1.250; in the series with STIL CCD peptide [1] (setting [12]) it was 1.323. The “sw(20,w)” value with STIL CCD peptide [1] (10 µM, AUC-SV, 60 krpm, pH 6.8) is listed as 1.531 S; in the series on STIL CCD peptide [1] (setting [12]), 1.622 S. Further, the “oligomeric state (average number of monomers in the oligomer)” value was 3.56 × monomer mass with STIL CCD peptide [1] (setting [11]) and 4.1 × monomer mass in the series on STIL CCD peptide [1] (100 µM, AUC-SV, 60 krpm, 20 °C, 95% confidence level, listed as STIL-Q729L). Further, the “AUC oligomeric state, SE” value with STIL CCD peptide [2] is recorded as 3.47 ± 0.05 (5, 10, 20 µM) × monomer mass. In addition, the “mass, single species model, SE” value in the series with STIL CCD peptide [2] came to 13373 ± 200 Da. The “dissociation of tetramer (in words)” value in the series with STIL CCD peptide [3] is reported as “could not be dissociated under any experimental conditions”. Moreover, the MRE222 nm in series [4] is listed as −25.3 kdeg cm^2 dmol^−1 res^−1. Besides, the “% Helicity” value in series [4] is reported as 67%. The Tm in series [5] was greater than 95 °C.
In the case of “L SPDLYRF LTELDRQ LRLLQAQ IQRLLEA QSL-NH2 [STIL CCD718–749 A722L Q729L, STIL CCD peptide, double mutant of A722L and Q729L]”, the “Oligomeric State (at 10 µM)” value in the series with STIL CCD peptide [1] (10 µM) is “Tetramer”. Besides, the f/f0 came out at 1.390 in the series with STIL CCD peptide [1] (setting [13]) and 1.411 with STIL CCD peptide [1] (10 µM, AUC-SV, 60 krpm, pH 6.8). Also, the figures for the sw with STIL CCD peptide [1] (setting [13]) and in the series on STIL CCD peptide [1] (setting [9]) were 1.483 S and 1.452 S, respectively. Moreover, the “sw(20,w)” value in the series on STIL CCD peptide [1] (setting [13]) is on record as 1.530 S; in the series with STIL CCD peptide [1] (10 µM, AUC-SV, 60 krpm, pH 6.8) it was 1.499 S. Moreover, the “mw (solution mass from c(s) fit)” value is on record as 16134 Da in the series with STIL CCD peptide [1] (10 µM in legend of Figure S17 (second fit), 60 krpm, 95% confidence level) and 16229 Da in the series with STIL CCD peptide [1] (setting [10]). In addition, the “oligomeric state (multiple of monomer mass)” value in the series with STIL CCD peptide [1] (10 µM in legend of Figure S17 (second fit), AUC-SV, 60 krpm, 95% confidence level) is 4.2 × monomer mass. In addition, the “oligomeric state (average number of monomers in the oligomer)” value was 4.22 × monomer mass in the series on STIL CCD peptide [1] (setting [11]) and 4.2 × monomer mass in the series on STIL CCD peptide [1] (10 µM, AUC-SV, 60 krpm, 20 °C, absorbance, 95% confidence level, listed as STIL-A722L-Q729L). The “AUC oligomeric state, SE” value with STIL CCD peptide [2] is on record as 3.24 ± 0.03 (5, 10, 20 µM) × monomer mass. Also, in the series on STIL CCD peptide [2], the “mass, single species model, SE” value is 12446 ± 129 Da. Moreover, in the series on STIL CCD peptide [3], the “dissociation of tetramer (in words)” value is recorded as “could not be dissociated under any experimental conditions”. Moreover, in series [4], the MRE222 nm is on record as −30.7 kdeg cm^2 dmol^−1 res^−1. The “% Helicity” value in series [4] came to 81%. Further, the Tm in series [5] was greater than 95 °C.

B1: STIL CCD_(718–749) Q729L (peptide)
peptide: LSPDAYRFLTELDRQLRLLQAQIQRLLEAQSL-NH2
notes: STIL coiled-coil domain, residues 718-749, with Q729L; also called STIL CCD Q729L; source: synthetic peptide (Fmoc-SPPS on rink amide, RP-HPLC purified)
The term stoichiometry N denotes a count of units in the complex or per binding partner. For B1, the “stoichiometry N” value was 4 in series [6], 3.56 in series [7] and 3.47 ± 0.05 in series [8].

B2: STIL CCD_(718–749) A722L (peptide)
peptide: LSPDLYRFLTEQDRQLRLLQAQIQRLLEAQSL-NH2
notes: STIL coiled-coil domain, residues 718-749, with A722L; source: synthetic peptide (Fmoc-SPPS on rink amide, RP-HPLC purified)
Consider B2, for which the “stoichiometry N” value in series [6] was found to be 4; in series [7], 3.92; in series [8] it was 3.51 ± 0.02.

B3: STIL CCD_(718–749) A722L Q729L (peptide)
peptide: LSPDLYRFLTELDRQLRLLQAQIQRLLEAQSL-NH2
notes: STIL coiled-coil domain, residues 718-749, with A722L and Q729L; also called double mutant; source: synthetic peptide (Fmoc-SPPS on rink amide, RP-HPLC purified)
Take B3: the “stoichiometry N” value was found to be 4 in series [6], 4.22 in series [7] and 3.24 ± 0.03 in series [8].

The values above are taken from PMC10572602, “Molecular Mechanism of STIL Coiled-Coil Domain Oligomerization” (International Journal of Molecular Sciences, 2023).
